Measured values published in publication PMC9950205, “Efficacy, safety, and pharmacokinetics of teduglutide in adult Japanese patients with short bowel syndrome and intestinal failure: two phase III studies with an extension” (Surgery Today, 2022).

Test system: adult Japanese patients with SBS-IF
Assay: Safety: treatment-emergent adverse events (TEAEs, TESAEs)
Type: in vivo
Source text: Safety analyses included the monitoring of adverse events (AEs), body weight, BMI, vital signs, 12-lead electrocardiogram (ECG), serum biochemistry, hematology, and presence of antibodies to teduglutide. AEs were coded using the Medical Dictionary for Regulatory Activities versions 17.1 (TED-C14-004) and 21.0 (SHP633-306 and SHP633-307). Specifically, AEs were treatment-emergent AEs (TEAEs), defined as any unfavorable and unintended sign (including any abnormal laboratory finding), symptom, or disease that occurred during treatment with teduglutide, whether or not the event was considered to be related to the study drug by the clinical study investigator. AEs were also categorized as mild, moderate, or severe. […] AEs were considered related to treatment with teduglutide, or its administration, based on the investigator's medical judgment.

[1] = > 24 weeks (SHP633-307 and TED-C14-004), 0.05 mg/kg/day

Structure (SMILES): CC[C@H](C)[C@H](NC(=O)[C@H](Cc1ccccc1)NC(=O)[C@H](CC(=O)O)NC(=O)[C@H](CCCNC(=N)N)NC(=O)[C@H](C)NC(=O)[C@H](C)NC(=O)[C@H](CC(C)C)NC(=O)[C@H](CC(N)=O)NC(=O)[C@H](CC(=O)O)NC(=O)[C@H](CC(C)C)NC(=O)[C@@H](NC(=O)[C@@H](NC(=O)[C@H](CC(N)=O)NC(=O)[C@H](CCSC)NC(=O)[C@H](CCC(=O)O)NC(=O)[C@H](CC(=O)O)NC(=O)[C@H](CO)NC(=O)[C@H](Cc1ccccc1)NC(=O)[C@H](CO)NC(=O)CNC(=O)[C@H](CC(=O)O)NC(=O)CNC(=O)[C@@H](N)Cc1c[nH]cn1)[C@@H](C)O)[C@@H](C)CC)C(=O)N[C@@H](CC(N)=O)C(=O)N[C@@H](Cc1c[nH]c2ccccc12)C(=O)N[C@@H](CC(C)C)C(=O)N[C@H](C(=O)N[C@@H](CCC(N)=O)C(=O)N[C@H](C(=O)N[C@@H](CCCCN)C(=O)N[C@H](C(=O)N[C@H](C(=O)N[C@@H](CC(=O)O)C(=O)O)[C@@H](C)O)[C@@H](C)CC)[C@@H](C)O)[C@@H](C)CC [teduglutide]
- Abdominal distension: Events [1]: 2 n
- Abdominal distension: Patients [1]: 2 (13.3) n (%)
- Abdominal pain: Events [1]: 1 n
- Abdominal pain: Patients [1]: 1 (6.7) n (%)
- Anal abscess: Events [1]: 3 n
- Anal abscess: Patients [1]: 3 (20.0) n (%)
- Anemia: Events [1]: 0 n
- Anemia: Patients [1]: 0 n (%)
- Any TEAE: Events [1]: 199 n
- Any TEAE: Patients [1]: 11 (73.3) n (%)
- Arthralgia: Events [1]: 5 n
- Arthralgia: Patients [1]: 5 (33.3) n (%)
- Back pain: Events [1]: 1 n
- Back pain: Patients [1]: 1 (6.7) n (%)
- Blood and lymphatic system disorders: Events [1]: 0 n
- Blood and lymphatic system disorders: Patients [1]: 0 n (%)
- Catheter site infection: Events [1]: 1 n
- Catheter site infection: Patients [1]: 1 (6.7) n (%)
- Catheter site pain: Events [1]: 4 n
- Catheter site pain: Patients [1]: 2 (13.3) n (%)
- Dehydration: Events [1]: 2 n
- Dehydration: Patients [1]: 2 (13.3) n (%)
- Dermatitis contact: Events [1]: 4 n
- Dermatitis contact: Patients [1]: 4 (26.7) n (%)
- Device occlusion (central venous catheter for PS): Events [1]: 3 n
- Device occlusion (central venous catheter for PS): Patients [1]: 2 (13.3) n (%)
- Device-related infection (central venous catheter for PS): Events [1]: 24 n
- Device-related infection (central venous catheter for PS): Patients [1]: 7 (46.7) n (%)
- Diarrhea: Events [1]: 4 n
- Diarrhea: Patients [1]: 3 (20.0) n (%)
- Dry skin: Events [1]: 1 n
- Dry skin: Patients [1]: 1 (6.7) n (%)
- Enteritis: Events [1]: 1 n
- Enteritis: Patients [1]: 1 (6.7) n (%)
- Enterocolitis: Events [1]: 2 n
- Enterocolitis: Patients [1]: 2 (13.3) n (%)
- Eye disorder: Events [1]: 5 n
- Eye disorder: Patients [1]: 1 (6.7) n (%)
- Gastrointestinal disorders: Events [1]: 33 n
- Gastrointestinal disorders: Patients [1]: 8 (53.3) n (%)
- General disorders and administration site conditions: Events [1]: 16 n
- General disorders and administration site conditions: Patients [1]: 5 (33.3) n (%)
- Headache: Events [1]: 11 n
- Headache: Patients [1]: 5 (33.3) n (%)
- Hematuria: Events [1]: 2 n
- Hematuria: Patients [1]: 2 (13.3) n (%)
- Hemorrhage subcutaneous: Events [1]: 2 n
- Hemorrhage subcutaneous: Patients [1]: 2 (13.3) n (%)
- Hepatobiliary disorders: Events [1]: 2 n
- Hepatobiliary disorders: Patients [1]: 2 (13.3) n (%)
- Hypersensitivity: Events [1]: 2 n
- Hypersensitivity: Patients [1]: 2 (13.3) n (%)
- Hypozincemia: Events [1]: 1 n
- Hypozincemia: Patients [1]: 1 (6.7) n (%)
- Immune system disorders: Events [1]: 2 n
- Immune system disorders: Patients [1]: 2 (13.3) n (%)
- Infections and infestations: Events [1]: 62 n
- Infections and infestations: Patients [1]: 10 (66.7) n (%)
- Influenza: Events [1]: 18 n
- Influenza: Patients [1]: 5 (33.3) n (%)
- Injection site reaction: Events [1]: 0 n
- Injection site reaction: Patients [1]: 0 n (%)
- Injury, poisoning, and procedural complications: Events [1]: 1 n
- Injury, poisoning, and procedural complications: Patients [1]: 1 (6.7) n (%)
- Insomnia: Events [1]: 2 n
- Insomnia: Patients [1]: 2 (13.3) n (%)
- Investigations: Events [1]: 5 n
- Investigations: Patients [1]: 2 (13.3) n (%)
- Metabolism and nutrition disorders: Events [1]: 7 n
- Metabolism and nutrition disorders: Patients [1]: 5 (33.3) n (%)
- Musculoskeletal and connective tissue disorders: Events [1]: 10 n
- Musculoskeletal and connective tissue disorders: Patients [1]: 6 (40.0) n (%)
- Nasopharyngitis: Events [1]: 18 n
- Nasopharyngitis: Patients [1]: 5 (33.3) n (%)
- Nausea: Events [1]: 7 n
- Nausea: Patients [1]: 3 (20.0) n (%)
- Nervous system disorders: Events [1]: 19 n
- Nervous system disorders: Patients [1]: 7 (46.7) n (%)
- Oropharyngeal pain: Events [1]: 3 n
- Oropharyngeal pain: Patients [1]: 3 (20.0) n (%)
- Pruritus: Events [1]: 1 n
- Pruritus: Patients [1]: 1 (6.7) n (%)
- Psychiatric disorders: Events [1]: 4 n
- Psychiatric disorders: Patients [1]: 3 (20.0) n (%)
- Pyrexia: Events [1]: 5 n
- Pyrexia: Patients [1]: 4 (26.7) n (%)
- Renal and urinary disorders: Events [1]: 4 n
- Renal and urinary disorders: Patients [1]: 3 (20.0) n (%)
- Respiratory, thoracic, and mediastinal disorders: Events [1]: 8 n
- Respiratory, thoracic, and mediastinal disorders: Patients [1]: 3 (20.0) n (%)
- Skin and subcutaneous tissue disorders: Events [1]: 13 n
- Skin and subcutaneous tissue disorders: Patients [1]: 7 (46.7) n (%)
- Somnolence: Events [1]: 3 n
- Somnolence: Patients [1]: 3 (20.0) n (%)
- Stomatitis: Events [1]: 3 n
- Stomatitis: Patients [1]: 3 (20.0) n (%)
- Upper respiratory tract inflammation: Events [1]: 1 n
- Upper respiratory tract inflammation: Patients [1]: 1 (6.7) n (%)
- Vascular disorders: Events [1]: 4 n
- Vascular disorders: Patients [1]: 3 (20.0) n (%)
- Vascular pain: Events [1]: 3 n
- Vascular pain: Patients [1]: 2 (13.3) n (%)
- Vomiting: Events [1]: 1 n
- Vomiting: Patients [1]: 1 (6.7) n (%)
- TESAEs considered to be related to teduglutide (SHP633-306 or SHP633-307): No TESAEs
- Deaths during the study (TED-C14-004, one patient, acute hepatic and renal failure 52 days after teduglutide discontinuation): only death
- Abdominal distension: Events (Total, 0.05 mg/kg/day): 6 n
- Abdominal distension: Patients (Total, 0.05 mg/kg/day): 6 (33.3) n (%)
- Abdominal pain: Events (Total, 0.05 mg/kg/day): 6 n
- Abdominal pain: Patients (Total, 0.05 mg/kg/day): 5 (27.8) n (%)
- Anal abscess: Events (Total, 0.05 mg/kg/day): 3 n
- Anal abscess: Patients (Total, 0.05 mg/kg/day): 3 (16.7) n (%)
- Anemia: Events (Total, 0.05 mg/kg/day): 2 n
- Anemia: Patients (Total, 0.05 mg/kg/day): 2 (11.1) n (%)
- Any TEAE: Events (Total, 0.05 mg/kg/day): 320 n
- Any TEAE: Patients (Total, 0.05 mg/kg/day): 18 (100.0) n (%)
- Arthralgia: Events (Total, 0.05 mg/kg/day): 5 n
- Arthralgia: Patients (Total, 0.05 mg/kg/day): 5 (27.8) n (%)
- Back pain: Events (Total, 0.05 mg/kg/day): 2 n
- Back pain: Patients (Total, 0.05 mg/kg/day): 2 (11.1) n (%)
- Blood and lymphatic system disorders: Events (Total, 0.05 mg/kg/day): 4 n
- Blood and lymphatic system disorders: Patients (Total, 0.05 mg/kg/day): 3 (16.7) n (%)
- Catheter site infection: Events (Total, 0.05 mg/kg/day): 2 n
- Catheter site infection: Patients (Total, 0.05 mg/kg/day): 2 (11.1) n (%)
- Catheter site pain: Events (Total, 0.05 mg/kg/day): 5 n
- Catheter site pain: Patients (Total, 0.05 mg/kg/day): 2 (11.1) n (%)
- Dehydration: Events (Total, 0.05 mg/kg/day): 4 n
- Dehydration: Patients (Total, 0.05 mg/kg/day): 2 (11.1) n (%)
- Dermatitis contact: Events (Total, 0.05 mg/kg/day): 4 n
- Dermatitis contact: Patients (Total, 0.05 mg/kg/day): 4 (22.2) n (%)
- Device occlusion (central venous catheter for PS): Events (Total, 0.05 mg/kg/day): 6 n
- Device occlusion (central venous catheter for PS): Patients (Total, 0.05 mg/kg/day): 3 (16.7) n (%)
- Device-related infection (central venous catheter for PS): Events (Total, 0.05 mg/kg/day): 33 n
- Device-related infection (central venous catheter for PS): Patients (Total, 0.05 mg/kg/day): 10 (55.6) n (%)
- Diarrhea: Events (Total, 0.05 mg/kg/day): 5 n
- Diarrhea: Patients (Total, 0.05 mg/kg/day): 4 (22.2) n (%)
- Dry skin: Events (Total, 0.05 mg/kg/day): 2 n
- Dry skin: Patients (Total, 0.05 mg/kg/day): 2 (11.1) n (%)
- Enteritis: Events (Total, 0.05 mg/kg/day): 2 n
- Enteritis: Patients (Total, 0.05 mg/kg/day): 2 (11.1) n (%)
- Enterocolitis: Events (Total, 0.05 mg/kg/day): 4 n
- Enterocolitis: Patients (Total, 0.05 mg/kg/day): 3 (16.7) n (%)
- Eye disorder: Events (Total, 0.05 mg/kg/day): 7 n
- Eye disorder: Patients (Total, 0.05 mg/kg/day): 3 (16.7) n (%)
- Gastrointestinal disorders: Events (Total, 0.05 mg/kg/day): 60 n
- Gastrointestinal disorders: Patients (Total, 0.05 mg/kg/day): 15 (83.3) n (%)
- General disorders and administration site conditions: Events (Total, 0.05 mg/kg/day): 37 n
- General disorders and administration site conditions: Patients (Total, 0.05 mg/kg/day): 10 (55.6) n (%)
- Headache: Events (Total, 0.05 mg/kg/day): 14 n
- Headache: Patients (Total, 0.05 mg/kg/day): 7 (38.9) n (%)
- Hematuria: Events (Total, 0.05 mg/kg/day): 3 n
- Hematuria: Patients (Total, 0.05 mg/kg/day): 3 (16.7) n (%)
- Hemorrhage subcutaneous: Events (Total, 0.05 mg/kg/day): 3 n
- Hemorrhage subcutaneous: Patients (Total, 0.05 mg/kg/day): 2 (11.1) n (%)
- Hepatobiliary disorders: Events (Total, 0.05 mg/kg/day): 5 n
- Hepatobiliary disorders: Patients (Total, 0.05 mg/kg/day): 4 (22.2) n (%)
- Hypersensitivity: Events (Total, 0.05 mg/kg/day): 2 n
- Hypersensitivity: Patients (Total, 0.05 mg/kg/day): 2 (11.1) n (%)
- Hypozincemia: Events (Total, 0.05 mg/kg/day): 2 n
- Hypozincemia: Patients (Total, 0.05 mg/kg/day): 2 (11.1) n (%)
